Test results from publication PMC9081605, “A High-Throughput Toxicity Screen of 42 Per- and Polyfluoroalkyl Substances (PFAS) and Functional Assessment of Migration and Gene Expression in Human Placental Trophoblast Cells” (Frontiers in Toxicology, 2022).
“Also recorded” adds a separate entry of the source.

Columns and labels:
Type in all cases: cell-based, human
[1] = test system: JEG-3 cells; assay: Proliferation, change in confluence 0-24 h (IncuCyte Zoom, HTTS); details: for minimal effective concentration: read-out: Prolif ↓, lowest concentration at which the mean response value exceeded the mean control value ± 2*SD (rough binning); for Prolif ↑, lowest concentration at which the mean response value exceeded the mean control value ± 2*SD (rough binning) / Prolif ↓, lowest concentration at which the mean response value exceeded the mean control value ± 2*SD (rough binning): 24 h; for Prolif ↑, lowest concentration at which the mean response value exceeded the mean control value ± 2*SD (rough binning): increase; for cellular proliferation relative to vehicle control (rough binning): after 24 h, in at least one concentration; for Prolif ↓, lowest concentration at which the mean response value exceeded the mean control value ± 2*SD (rough binning): decrease
Description: (§1) JEG-3 human choriocarcinoma trophoblastic cells (American Type Culture Collection, VA, United States) were maintained in sterile-filtered Minimum Essential Media (MEM) supplemented with L-glutamine and phenol red (Thermo Fisher Scientific, MA, United States), 10% (v/v) heat-inactivated BenchMark Fetal Bovine Serum (Gemini Bio, CA, United States), 1% (v/v) sodium pyruvate (Thermo Fisher Scientific, MA, United States), and 1% (v/v) penicillin streptomycin (Sigma Aldrich, MO, United States). Cells were maintained in an incubator at 37°C with 5% CO2. JEG-3 cells were cultured in 10 cm tissue culture plates and cell passage numbers were recorded.
(§2) A total of 42 perfluoroalkyl substances (PFAS) were evaluated (Supplementary Table S1 contains source and purity). PFAS stock solutions were maintained in 100% methanol as previous work has shown certain PFAS degrade when stored in dimethyl sulfoxide (DMSO; [Gaballah et al., 2020]). […] The vehicle control group consisted of 97.5% media + 2.5% methanol to match the concentration of methanol in the media at the highest PFAS concentration tested (500 µM). Menadione (50–500 µM) was used as a positive control for cytotoxicity assessment. PFAS were de-identified and assigned random numbers to eliminate bias. Chemical exposure plate maps were designed so that all experimental conditions were tested in at least technical duplicates per plate. The outer edges of each plate received media alone and were excluded from all analyses to avoid edge effects. Each plate map included 14 technical replicates of the vehicle control group and 14 technical replicates of media only. Biological replicates were defined as separate 384 well plates tested on separate days using different cell passages. The experimental workflow is depicted in Supplementary Figure S1.
(§3) JEG-3 cells were counted using a Z2 Coulter Particle Counter (Beckman Coulter, CA, United States) and seeded at a density of 2,500 cells per well in black-walled, clear bottom 384 well plates (Corning, #3764) and allowed to adhere overnight. Approximately 24 h later, 384 well plates were imaged using an IncuCyte Zoom live cell imager (Essen BioScience Inc., MI, United States) to obtain baseline cellular confluence measurements prior to chemical dosing (0 h). Media was removed from wells and replaced with fresh media containing chemical treatments (exposure media) using a Viaflo liquid handling device (Integra Biosciences, NH, United States). Within 30 min of exposure media application, plates were again imaged for cellular confluence using the IncuCyte Zoom. Plates were incubated with exposure media for 24 h and then imaged again using the IncuCyte Zoom (24 h).
Plate well bottom images were evaluated using automated cell masking. The automated cell masking program was developed using IncuCyte Zoom base software. Cell masking parameters were defined using a training set of JEG-3 cell images obtained prior to conducting the experiments and following IncuCyte Zoom software recommendations. Briefly, the training images were obtained from cell culture plates with varying levels of JEG-3 cellular confluence (ranging from ∼15% confluent to ∼95% confluent). Parameters for the automated cell masking were first manually set by an experimenter for 3-6 images of low (∼15–30%), medium (∼30–70%), and high confluence (∼70% or greater). The training images were then evaluated by the automated masking program and manually checked to ensure the parameters were sufficiently strict to ignore background (e.g., blank space on the plate well bottom) but adequately sensitive to detect cell borders. The masking program was then implemented on the experimental plates to obtain a baseline cellular confluence measurement at 0 h and a second confluence measurement at 24 h. […]

[2] = test system: JEG-3 cells; assay: Mitochondrial membrane potential, JC-10 assay (HTTS)
Description: as §1, §2, §3
The JC-10 assay (Enzo Life Sciences, NY, United States) was used to evaluate mitochondrial membrane potential, the main bioenergetic parameter that regulates respiratory rate, ATP synthesis and reactive oxygen species generation. In cells with polarized mitochondrial membranes, the JC-10 dye localizes to the mitochondrial matrix and forms red fluorescent aggregates (540/590 nm). In cells with depolarized mitochondrial membranes, the JC-10 dye localizes in the cytoplasm and converts to a green fluorescent monomer (490/525 nm). Mitochondrial membrane potential was calculated as the ratio of the green and red fluorescence intensities within a well.
At the end of the 24 h exposure period, exposure media was removed from the plate. The plate wells were then washed with 1x phosphate buffered saline (1x PBS). After washing, the JC-10 reagent was suspended in fresh 1x PBS and 20 µl was added to each well at a final concentration of 20 μM (Enzo Life Sciences, NY, United States). The plate was incubated for 1 h at 37°C, and the fluorescence intensities at excitation/emission wavelengths of 490/525 nm and 540/590 nm were measured using a CLARIOstar (BMG Labtech, Offenburg, Germany) plate reader, respectively.
HTTS data were analyzed using a custom data analysis script in R v 1.2.5019 ([R Core Team, 2019]). […]

[3] = test system: JEG-3 cells; assay: CellTiter-Glo luminescent cell viability assay (HTTS); details: for Viability ↑, lowest concentration at which the mean response value exceeded the mean control value ± 2*SD (rough binning): increase; for cell viability relative to vehicle control (rough binning): after 24 h, in at least one concentration
Description: as §1, §2, §3
In the same plate evaluated for mitochondrial membrane potential, cell viability measures were duplexed using the CellTiter-Glo (CTG) Luminescent Cell Viability Assay (Promega, WI, United States). CTG reagent was added to each well at a volume of 20 µl. The plate was left at room temperature to incubate for 5 min and then 20 µl from each well was transferred to a low-volume, round-bottom, white 384 well plate (Corning, NY, United States). The CTG reagent lyses cellular and mitochondrial membranes and binds to adenosine triphosphate (ATP) released by cells, which produces a luminescence signal. The intensity of the luminescence was considered a proxy measure for the number of live cells in a well. The luminescence intensities were measured using the CLARIOstar plate reader.
HTTS data were analyzed using a custom data analysis script in R v 1.2.5019 ([R Core Team, 2019]). Briefly, raw data points corresponding to the confluence measurements at 0 and 24 h, the fluorescence intensities corresponding to MMP, and the relative luminescence units (RLU) corresponding to cell viability were imported directly from Microsoft Excel into the R programming environment, RStudio. Separate plates run on separate days using different JEG-3 passages were considered as biologic replicates. […]

[4] = Homo sapiens, JEG-3, 24 h, read-out: Proliferation EC50 ± SD, JEG-3 cells, 24 h exposure, four-parameter fit, estimates meeting inclusion criteria
[5] = JEG-3 cells, 24 h exposure, four-parameter fit, estimates meeting inclusion criteria, read-out: Proliferation EC50 ± SD
[6] = JEG-3 cells, 24 h exposure, four-parameter fit, estimates meeting inclusion criteria, read-out: Viability EC50 ± SD
[7] = Homo sapiens, JEG-3, 24 h, read-out: Viability EC50 ± SD, JEG-3 cells, 24 h exposure, four-parameter fit, estimates meeting inclusion criteria
[8] = JEG-3 cells, 24 h exposure, four-parameter fit, estimates meeting inclusion criteria, read-out: MMP EC50 ± SD

## O=P(O)(OCCC(F)(F)C(F)(F)C(F)(F)C(F)(F)C(F)(F)C(F)(F)F)OCCC(F)(F)C(F)(F)C(F)(F)C(F)(F)C(F)(F)C(F)(F)F [6:2 Fluorotelomer phosphate diester]
[1]; Homo sapiens, JEG-3, 24 h
  minimal effective concentration: 188 µM
[1]; [4]
  EC50: 142 ± 39.2 µM
[1]; Homo sapiens, JEG-3, 24 h, read-out: proliferation EC50 ± SE, JEG-3 cells, 24 h
  EC50: 142 ± 39.4 µM
[1]; JEG-3 cells
  Prolif ↑, lowest concentration at which the mean response value exceeded the mean control value ± 2*SD (rough binning): 37.5 µM
[1]
  cellular proliferation relative to vehicle control (rough binning): reduced cellular proliferation; also recorded: increased cellular proliferation
[2]; Homo sapiens, JEG-3, read-out: MMP EC50 ± SD (raw values), JEG-3 cells, raw model output including fits that did not meet inclusion criteria
  EC50: 64402 ± 10 µM
[3]; JEG-3 cells, 24 h
  Viability ↑, lowest concentration at which the mean response value exceeded the mean control value ± 2*SD (rough binning): 112.5 µM
[3]
  cell viability relative to vehicle control (rough binning): increased cell viability

## O=C(O)C(F)(F)C(F)(F)C(F)(F)C(F)(F)C(F)(F)C(F)F [7H-Perfluoroheptanoic acid]
[1]; JEG-3 cells
  Prolif ↓, lowest concentration at which the mean response value exceeded the mean control value ± 2*SD (rough binning): 400 µM
[1]; [5]
  EC50: 294 ± 48.2 µM
[1]
  cellular proliferation relative to vehicle control (rough binning): reduced cellular proliferation
[3]; JEG-3 cells, 24 h
  Viability ↑, lowest concentration at which the mean response value exceeded the mean control value ± 2*SD (rough binning): 50 µM
[3]; [6]
  EC50: 223 ± 60.2 µM
[3]
  cell viability relative to vehicle control (rough binning): increased cell viability

## O=C([O-])C(F)(F)OC(F)(F)F.[Na+] [2,2-Difluoro-2-(trifluoromethoxy)acetate sodium salt]
[1]; JEG-3 cells
  Prolif ↑, lowest concentration at which the mean response value exceeded the mean control value ± 2*SD (rough binning): 50 µM
[1]
  cellular proliferation relative to vehicle control (rough binning): increased cellular proliferation

## OCCC(F)(F)C(F)(F)C(F)(F)C(F)(F)C(F)(F)C(F)(F)C(F)(F)C(F)(F)F [8:2 Fluorotelomer alcohol]
[2]; Homo sapiens, JEG-3, 24 h, read-out: MMP EC50 ± SD, JEG-3 cells, 24 h exposure, four-parameter fit, estimates meeting inclusion criteria
  EC50: 95.1 ± 15.3 µM
[3]; [7]
  EC50: 35.7 ± 36.5 µM
[3]; Homo sapiens, JEG-3, 24 h, read-out: viability EC50 ± SE, JEG-3 cells, 24 h
  EC50: 36 ± 37 µM

## O=C(O)C(F)(F)C(F)(F)C(F)(F)C(F)(F)C(F)(F)C(F)(F)C(F)(F)C(F)(F)C(F)(F)C(F)(F)C(F)(F)F [Perfluorododecanoic acid]
[1]; [4]
  EC50: 318 ± 24.5 µM
[3]; [7]
  EC50: 361 ± 30.8 µM
[3]; JEG-3 cells, 24 h
  Viability ↑, lowest concentration at which the mean response value exceeded the mean control value ± 2*SD (rough binning): 50 µM
[3]
  cell viability relative to vehicle control (rough binning): increased cell viability

## O=C(O)C(F)(F)C(F)(F)C(F)(F)C(F)(F)C(F)(F)C(F)(F)C(F)(F)C(F)(F)C(F)(F)C(F)(F)C(F)(F)C(F)(F)F [Perfluorotridecanoic acid]
[1]; JEG-3 cells
  Prolif ↓, lowest concentration at which the mean response value exceeded the mean control value ± 2*SD (rough binning): 450 µM
  Prolif ↑, lowest concentration at which the mean response value exceeded the mean control value ± 2*SD (rough binning): 50 µM
[1]; [5]
  EC50: 388 ± 125 µM
[3]; JEG-3 cells, 24 h
  Viability ↑, lowest concentration at which the mean response value exceeded the mean control value ± 2*SD (rough binning): 150 µM
[3]
  cell viability relative to vehicle control (rough binning): increased cell viability

## O=S(=O)([O-])C(F)(F)C(F)(F)C(F)(F)C(F)(F)C(F)(F)F.[Na+] [Sodium perfluoropentanesulfonate]
[1]; JEG-3 cells
  Prolif ↑, lowest concentration at which the mean response value exceeded the mean control value ± 2*SD (rough binning): 200 µM
[1]
  cellular proliferation relative to vehicle control (rough binning): increased cellular proliferation
[3]; JEG-3 cells, 24 h, decrease
  Viability ↓, lowest concentration at which the mean response value exceeded the mean control value ± 2*SD (rough binning): 350 µM
[3]; JEG-3 cells, raw model output including fits that did not meet inclusion criteria, read-out: Viability EC50 ± SD (raw values)
  EC50: 1210 µM
[3]
  cell viability relative to vehicle control (rough binning): reduced cell viability

## 6:2 Fluorotelomer alcohol
[2]; JEG-3 cells, 24 h, read-out: MMP EC50 ± SE
  EC50: 95.1 ± 15.3 µM
[2]; [8]
  EC50: 332 ± 44.1 µM
[3]; [6]
  EC50: 415 ± 70.6 µM

## O=C(O)C(F)(F)C(F)(F)C(F)(F)C(F)(F)F [Perfluoropentanoic acid]
[2]; [8]
  EC50: 175 ± 68.4 µM
[3]; JEG-3 cells, 24 h
  Viability ↑, lowest concentration at which the mean response value exceeded the mean control value ± 2*SD (rough binning): 200 µM
[3]
  cell viability relative to vehicle control (rough binning): increased cell viability

## O=C(O)C(F)(OC(F)(F)C(F)(F)C(F)(F)F)C(F)(F)F (stereo not shown) [Perfluoro-2-methyl-3-oxahexanoic acid]
[1]; JEG-3 cells
  Prolif ↑, lowest concentration at which the mean response value exceeded the mean control value ± 2*SD (rough binning): 450 µM
[1]
  cellular proliferation relative to vehicle control (rough binning): increased cellular proliferation
[1]; read-out: Proliferation EC50 ± SD (raw values), JEG-3 cells, raw model output including fits that did not meet inclusion criteria
  EC50: 1110 ± 267 µM
[2]; Homo sapiens, JEG-3, 24 h, read-out: MMP ↓, lowest concentration at which the mean response value exceeded the mean control value ± 2*SD (rough binning)
  minimal effective concentration: 375 µM
[2]; after 24 h, in at least one concentration
  MMP relative to vehicle control (rough binning): reduced MMP

## O=C(O)C(F)(OC(F)(F)C(F)(F)C(F)(F)F)C(F)(F)F (stereo not shown) [Ammonium perfluoro-2-methyl-3-oxahexanoate]
[1]; Homo sapiens, JEG-3, 24 h
  minimal effective concentration: 50 µM
[1]; Homo sapiens, JEG-3, read-out: Proliferation EC50 ± SD (raw values), JEG-3 cells, raw model output including fits that did not meet inclusion criteria
  EC50: 997 ± 952 µM

## O=S(=O)(O)CCC(F)(F)C(F)(F)C(F)(F)C(F)(F)C(F)(F)C(F)(F)F [6:2 Fluorotelomer sulfonic acid]
[1]; JEG-3 cells
  Prolif ↑, lowest concentration at which the mean response value exceeded the mean control value ± 2*SD (rough binning): 50 µM
[1]
  cellular proliferation relative to vehicle control (rough binning): increased cellular proliferation
[2]; JEG-3 cells, raw model output including fits that did not meet inclusion criteria, read-out: MMP EC50 ± SD (raw values)
  EC50: 70608 ± 10 µM

## O=C(O)C(F)(F)C(F)(F)C(F)(F)C(F)(F)C(F)(F)C(F)(F)F [Perfluoroheptanoic acid]
[1]; Homo sapiens, JEG-3, 24 h
  minimal effective concentration: 450 µM
[1]; [4]
  EC50: 277 ± 81.6 µM
[1]
  cellular proliferation relative to vehicle control (rough binning): reduced cellular proliferation
[3]; [7]
  EC50: 487 ± 409 µM

## O=C(O)C(F)(F)C(F)(F)C(F)(F)C(F)F [5H-Octafluoropentanoic acid]
[1]; [5]
  EC50: 334 ± 56.5 µM
[3]; [6]
  EC50: 354 ± 28.6 µM
